This is an account of results in patent US12521393B2, “Cytotoxicity targeting chimeras for CCR2-expressing cells” (GLAXOSMITHKLINE INTELLECTUAL PROPERTY DEVELOPMENT LIMITED, priority 2021, dated 2026).

SMILES strings stand for the structures.

In experiment [1] the test system is endogenous target monocytes in human PBMC. Put plainly: PBMC ex vivo monocyte depletion flow cytometry assay (Example 200). The class given is cell-based. The note with it: with anti-cotinine antibody (SEQ ID NO: 11/12), 18-24 hours, EC50 in molar, read-out: Ex Vivo Depletion Assay pEC50 (converted). The method, boiled down:
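Monocyte depletion is reported as pEC50, averaged or given individually across runs, and read by flow cytometry staining CD45, CD14 and CD4 with a viability dye. Compounds, diluted four-fold over 11 points from 1 mM DMSO stocks, were combined with 30 μg/mL Fc-enhanced anti-cotinine antibody and human PBMC, then incubated 18-24 h at 37° C.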
(A flow cytometer gives signals particle by particle.)

The target in experiment [2] is T1, CHOK1 cells engineered to overexpress human CCR2 (Homo sapiens, UniProt P41597).
T1 construct: expressed in transfected cells; host or cells: CHOK1
Put plainly: Antibody dependent cellular cytotoxicity (ADCC) reporter assay (Example 199). The experiment is classed as cell-based. The note with it: with anti-cotinine antibody (SEQ ID NO: 11/12), Jurkat FcγRIIIa NFAT-luciferase reporter cells, 12-18 hours, EC50 in molar, average or individual runs; for EC50: read-out: ADCC Reporter Assay pEC50 (converted). The method, then: An antibody dependent cellular cytoxocity reporter assay was conducted using the following four assay components: (i) ARM compound of Formula (I) targeting CCR2 (concentrations ranging from […] to 10 μM) (ii) anti-cotinine antibody having a heavy chain sequence of SEQ ID NO: 11 and a light chain sequence of SEQ ID NO: 12 (rabbit variable region with human IgG1 Fc domain containing a DE mutation (S239D/1332E)) (concentrations ranging from 0.01 μg/mL to 200 μg/mL); (iii) target cells: CHOK1 cells engineered to overexpress either human CCR2 (typically 1000-20,000 cells per well) and (iv) reporter cells: Jurkat cells engineered to express FcγRIIIa with the reporter gene luciferase under the control of the NFAT promoter (typically 3000-75,000 cells per well). Reagents were combined in a final volume of 20 μL in a 384-well tissue culture treated plate. All four assay components were incubated together for about 12-18 hours. Thereafter, BioGlo Detection reagent (Promega) was added to the wells to lyse the cells and provide a substrate for the luciferase reporter protein. Luminescence signal was measured on a microplate reader and signal: background was calculated by dividing the signal of a test well by the signal obtained when no heterobivalent compound of Formula (I) was added. EC50 calculations were done using Graphpad Prism Software, specifically a nonlinear regression curve fit (Y=Bottom+(Top−Bottom)/(1+10A((LogEC50−X)*HillSlope))).
ARMs compounds of Formula (I) of the invention were tested for ADCC activity in the above assay in or more experimental runs and the results are shown in Table 3 below. Potency of the compounds of Formula (I) of the invention is reported as a pEC50 value. The pEC50 value is the negative log of the EC50 value, wherein the EC50 value is the half maximal effective concentration measured in molar (M). For compounds tested in more than one experimental run, the pEC50 value is reported as an average.
(In a reporter assay the amount or activity of a reporter protein is the signal.)

Experiment [3] deals with CCR2 expressing cells (CD11b+Ly6c+Hi) in peripheral blood. Put plainly: In vivo depletion assay, flow cytometry of peripheral blood (Example 201). Details: species or system human CCR2 knock-in mice (C57 background). The note with it: hCCR2 knock-in mice, IV 0.1 mpk compound + 10 mpk anti-cotinine antibody (SEQ ID NO: 13/14), peripheral blood at 48 hr. Summed up:
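Mice dosed with compound formulated in saline/DMSO/PBS, with anti-cotinine antibody (rabbit variable region, mouse IgG2a Fc) where required, pre-incubated 30 min at room temperature. Terminal peripheral blood RBC-lysed, Fc-blocked, stained for CD45, CD3, CD11b, Ly6C, human CCR2 and 7AAD; percent depletion of CD11b+Ly6c+Hi cells determined by flow cytometry.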

The target in experiment [4] is anti-cotinine antibody (SEQ ID NO: 11/12, rabbit variable region with human IgG1 Fc DE mutation). The experiment is described as follows: SPR binding of anti-cotinine antibody to ARM compounds, Biacore T200, 37° C. (Example 202). The following applies: SPR Biacore T200, 37° C., pH 7.4, antibody SEQ ID NO: 11/12 captured on protein A; Kd in molar. Summed up:
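Antibody captured on a protein A chip; ARM compounds injected at 100 μL/min (200 s association, 2000 s dissociation), 3-fold 5-point series from 200 nM, at 37 °C in HEPES pH 7.4 buffer with 0.005% P20 and 1% DMSO. Double-referenced sensorgrams fit 1:1 for kon, koff, Kd (koff/kon), residence time (1/koff); pKd averaged across runs.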

Consider `CC(C)N(C)[C@@H]1CC[C@H](N2CC[C@H](Nc3ncnc4ccc(C(F)(F)F)cc34)C2=O)[C@H](NC(=O)C2CCC(N3CCC(S(=O)(=O)NCCCCCCNC(=O)[C@H]4CC(=O)N(C)[C@@H]4c4cccnc4)CC3)CC2)C1` (single isomer, unassigned) [Example 149], for which the EC50 in experiment [1] and in experiment [2] was 0.251 nM in each case.
As for `CC(C)N(C)[C@@H]1CC[C@H](N2CC[C@H](Nc3ncnc4ccc(C(F)(F)F)cc34)C2=O)[C@H](NC(=O)CCOCCOCCOCCOCCOCCOCCOCCOCCOCCOCCOCCOCCOCCOCCOCCOCCOCCOCCOCCOCCOCCOCCOCCNC(=O)C2CC(=O)N(C)C2c2cccnc2)C1` (stereo in doubt) [Example 43, (2R,3R)-N-(72-(((1R,2S,5R)-5-(isopropyl(methyl)amino)-2-((S)-2-oxo-3-((6-(trifluoromethyl)quinazolin-4-yl)amino)pyrrolidin-1-yl)cyclohexyl)amino)-72-oxo-3,6,9,12,15,18,21,24,27,30,33,36,39,42,45,48,51,54,57,60,63,66,69-tricosaoxadoheptacontyl)-1-methyl-5-oxo-2-(pyridin-3-yl)pyrrolidine-3-carboxamide], the “ADCC Reporter Assay pEC50” value in experiment [2] turned out to be 8.8.
In the case of `CC(C)N(C)[C@@H]1CC[C@H](N2CC[C@H](Nc3ncnc4ccc(C(F)(F)F)cc34)C2=O)[C@H](NC(=O)CCOCCOCCOCCOCCNC(=O)[C@H]2CC(=O)N(C)[C@@H]2c2cccnc2)C1` [Example 39, (2S,3S)-N-(15-(((1R,2S,5R)-5-(Isopropyl(methyl)amino)-2-((S)-2-oxo-3-((6-(trifluoromethyl)quinazolin-4-yl)amino)pyrrolidin-1-yl)cyclohexyl)amino)-15-oxo-3,6,9,12-tetraoxapentadecyl)-1-methyl-5-oxo-2-(pyridin-3-yl)pyrrolidine-3-carboxamide], the EC50 in experiment [1] is 2510 nM; in experiment [2], 15.8 nM.
The like results for `CC(C)N(C)[C@@H]1CC[C@H](N2CC[C@H](Nc3ncnc4ccc(C(F)(F)F)cc34)C2=O)[C@H](N[C@H]2CC[C@@H](C(=O)NCCOCCOCCOCCOCCNC(=O)[C@H]3CC(=O)N(C)[C@@H]3c3cccnc3)CC2)C1` [Example 67] were, in that order, 3.98 nM and 5.01 nM.
As for `CC(C)N(C)[C@@H]1CC[C@H](N2CC[C@H](Nc3ncnc4ccc(C(F)(F)F)cc34)C2=O)[C@H](NC(=O)C2CCN(C3CCN(C(=O)CCCCCCCCCNC(=O)[C@@H]4CC(=O)N(C)[C@H]4c4cccnc4)CC3)CC2)C1` [Example 157, N-((1R,2S,5R)-5-(Isopropyl(methyl)amino)-2-((S)-2-oxo-3-((6-(trifluoromethyl)quinazolin-4-yl)amino)pyrrolidin-1-yl)cyclohexyl)-1′-(10-((2R,3R)-1-methyl-5-oxo-2-(pyridin-3-yl)pyrrolidine-3-carboxamido)decanoyl)-[1,4′-bipiperidine]-4-carboxamide], the “% Depletion of CCR2 expressing cells” value in experiment [3] is reported as 79%. For the same molecule, in experiment [1], the EC50 was 0.631 nM. In addition, the “pKd of Antibody for ARM Compound of Formula (I)” value (“pKd of Antibody” below) in experiment [4] was found to be 10.135.
The like results for `CC(C)N(C)[C@@H]1CC[C@H](N2CC[C@H](Nc3ncnc4ccc(C(F)(F)F)cc34)C2=O)[C@H](NC(=O)CCOCCNC(=O)COCCNC(=O)CCOCCNC(=O)[C@H]2CC(=O)N(C)[C@@H]2c2cccnc2)C1` [Example 163, (2S,3S)-N-(19-(((1R,2S,5R)-5-(Isopropyl(methyl)amino)-2-((S)-2-oxo-3-((6-(trifluoromethyl)quinazolin-4-yl)amino)pyrrolidin-1-yl)cyclohexyl)amino)-6,12,19-trioxo-3,10,16-trioxa-7,13-diazanonadecyl)-1-methyl-5-oxo-2-(pyridin-3-yl)pyrrolidine-3-carboxamide] were, in that order, 89%, 0.871 nM and 9.07.
The like results for `CC(C)N(C)[C@@H]1CC[C@H](N2CC[C@H](Nc3ncnc4ccc(C(F)(F)F)cc34)C2=O)[C@H](NC(=O)CCCNc2c(NCCOCCOCCOCCOCCNC(=O)[C@H]3CC(=O)N(C)[C@@H]3c3cccnc3)c(=O)c2=O)C1` [Example 164, (2S,3S)-N-(14-((2-((4-(((1R,2S,5R)-5-(Isopropyl(methyl)amino)-2-((S)-2-oxo-3-((6-(trifluoromethyl)quinazolin-4-yl)amino)pyrrolidin-1-yl)cyclohexyl)amino)-4-oxobutyl)amino)-3,4-dioxocyclobut-1-en-1-yl)amino)-3,6,9,12-tetraoxatetradecyl)-1-methyl-5-oxo-2-(pyridin-3-yl)pyrrolidine-3-carboxamide] were, in that order, 86%, 1 nM and 9.3225.
The like results for `CC(C)N(C)[C@@H]1CC[C@H](N2CC[C@H](Nc3ncnc4ccc(C(F)(F)F)cc34)C2=O)[C@H](NC(=O)CCOCCOCCOCCNc2c(NCCCNC(=O)[C@H]3CC(=O)N(C)[C@@H]3c3cccnc3)c(=O)c2=O)C1` [Example 169, (2S,3S)-N-(3-((2-((2-(2-(2-(3-(((1R,2S,5R)-5-(Isopropyl(methyl)amino)-2-((S)-2-oxo-3-((6-(trifluoromethyl)quinazolin-4-yl)amino)pyrrolidin-1-yl)cyclohexyl)amino)-3-oxopropoxy)ethoxy)ethoxy)ethyl)amino)-3,4-dioxocyclobut-1-en-1-yl)amino)propyl)-1-methyl-5-oxo-2-(pyridin-3-yl)pyrrolidine-3-carboxamide] were, in that order, 87%, 0.251 nM and 9.0085.
Regarding `CC(C)N(C)[C@@H]1CC[C@H](N2CC[C@H](Nc3ncnc4ccc(C(F)(F)F)cc34)C2=O)[C@H](NC(=O)CCCC(=O)NCCCOCCCNC(=O)CCCNC(=O)[C@H]2CC(=O)N(C)[C@@H]2c2cccnc2)C1` [Example 173, N^1-((1R,2S,5R)-5-(Isopropyl(methyl)amino)-2-((S)-2-oxo-3-((6-(trifluoromethyl)quinazolin-4-yl)amino)pyrrolidin-1-yl)cyclohexyl)-N5-(3-(3-(4-((2S,3S)-1-methyl-5-oxo-2-(pyridin-3-yl)pyrrolidine-3-carboxamido)butanamido)propoxy)propyl)glutaramide], the “% Depletion of CCR2 expressing cells” value in experiment [3] stood at 91%. In addition, the EC50 in experiment [1] is 0.794 nM. Also, the “pKd of Antibody” value in experiment [4] came out at 9.1415.
As for `CC(C)N(C)[C@@H]1CC[C@H](N2CC[C@H](Nc3ncnc4ccc(C(F)(F)F)cc34)C2=O)[C@H](NC(=O)CCCC(=O)N[C@H]2CC[C@@H](CNC(=O)CCOCCNC(=O)[C@H]3CC(=O)N(C)[C@@H]3c3cccnc3)CC2)C1` [Example 179, N^1-((1R,2S,5R)-5-(isopropyl(methyl)amino)-2-((S)-2-oxo-3-((6-(trifluoromethyl)quinazolin-4-yl)amino)pyrrolidin-1-yl)cyclohexyl)-N^5-((1R,4S)-4-((3-(2-((2S,3S)-1-methyl-5-oxo-2-(pyridin-3-yl)pyrrolidine-3-carboxamido)ethoxy)propanamido)methyl)cyclohexyl)glutaramide], the “% Depletion of CCR2 expressing cells” value in experiment [3] stood at 89.5%. Also, the EC50 in experiment [1] was 0.631 nM. In experiment [4], the “pKd of Antibody” value was 9.24.
